Source: article PMC10496123, “Potent Antifungal Activity of Penta-O-galloyl-β-D-Glucose against Drug-Resistant Candida albicans, Candida auris, and Other Non-albicans Candida Species” (ACS Infectious Diseases, 2023)
Values after ≈ are worked out from the molar mass of the structure shown.

Experiments:
Candida glabrata = assay: Growth inhibition by CLSI microbroth dilution; assay type: cell-based; conditions: Nakaseomyces glabratus, 48 h, >90% growth inhibition
Candida albicans [1] = assay: Growth inhibition by CLSI microbroth dilution; assay type: cell-based; conditions: Candida albicans, >90% growth inhibition, 48 h
Candida parapsilosis = assay: Growth inhibition by CLSI microbroth dilution; assay type: cell-based; conditions: 48 h, >90% growth inhibition
Candida auris = assay: Growth inhibition by CLSI microbroth dilution; assay type: cell-based; conditions: Candidozyma auris, 48 h
[2] = tested on: C. albicans wild type (CAF2-1) and cdr1Δ/Δ cdr2Δ/Δ mdr1Δ/Δ flu1Δ/Δ; assay: microbe, parasite or virus in culture; assay type: cell-based, Candida albicans; conditions: for MIC90: Candida albicans, 72 h, RPMI-1640, 72 h, 30 °C, OD600
C. albicans = tested on: C. albicans; parameters: method as in PMID 12760852; conditions: 6 months of treatment in vitro; cited from earlier work
Candida albicans [3] = tested on: Candida albicans; parameters: method as in PMID 15790671; conditions: addition of both Fe^2+ and Fe^3+; cited from earlier work
[4] = tested on: C. albicans wild type (SN95, SN152) and ire1Δ/Δ, hap43Δ/Δ, rim101Δ/Δ; assay: microbe, parasite or virus in culture; assay type: cell-based, Candida albicans; conditions: mutants versus wild type
[5] = strain AR Bank #0381, >90% growth inhibition
[6] = strain AR Bank #0387, >90% growth inhibition
[7] = strain AR Bank #0390, >90% growth inhibition

Compound | MIC (Candida glabrata; strain AR Bank #0325) [µg/mL] | MIC (Candida glabrata; strain AR Bank #0326) [µg/mL] | MIC (Candida albicans [1]; ATCC90028, strain ATCC 90028) [µg/mL] | MIC (Candida albicans [1]; strain MH12) [µg/mL] | MIC (Candida parapsilosis; strain AR Bank #0335) [µg/mL] | MIC (Candida parapsilosis; strain AR Bank #0337) [µg/mL] | MIC (Candida parapsilosis; strain AR Bank #0338) [µg/mL] | MIC (Candida parapsilosis; strain AR Bank #0339) [µg/mL] | MIC (Candida auris; [5]) [µg/mL] | MIC (Candida auris; [6]) [µg/mL] | MIC (Candida auris; [7]) [µg/mL] | MIC90 ([2]; Wild type (CAF2-1)) [µg/mL] | MIC90 ([2]; cdr1Δ/Δ cdr2Δ/Δ mdr1Δ/Δ flu1Δ/Δ) [µg/mL] | Effect of absence of major efflux pumps (CDR1, CDR2, FLU1, MDR1) on sensitivity ([2]; mutant versus wild type) | Development of resistance (C. albicans) | Antifungal activity on addition of iron (Candida albicans [3]) | Effect of deletion of IRE1, HAP43 and RIM101 on sensitivity [4]
CC(=O)N1CCN(c2ccc(OCC3COC(Cn4ccnc4)(c4ccc(Cl)cc4Cl)O3)cc2)CC1 (stereo not drawn) [KTC, ketoconazole] | 4 (≈ 7.53 µM) | 0.25 (≈ 0.47 µM) | < 0.0039 | 1 (≈ 1.88 µM) | 4 (≈ 7.53 µM) | 2 (≈ 3.76 µM) | 0.5 (≈ 0.941 µM) | 0.25 (≈ 0.47 µM) | < 0.0039 | < 0.0039 | 0.5 (≈ 0.941 µM) | – | – | – | – | – | –
OC(Cn1cncn1)(Cn1cncn1)c1ccc(F)cc1F [FLC, fluconazole] | > 8 | 4 (≈ 13.1 µM) | 0.25 (≈ 0.816 µM) | > 8 | > 8 | > 8 | > 8 | > 8 | 4 (≈ 13.1 µM) | 1 (≈ 3.27 µM) | > 8 | > 5 | 0.16 (≈ 0.522 µM) | hypersensitivity | – | – | –
Cc1cc(C2CCCCC2)n(O)c(=O)c1 [ciclopirox] | – | – | – | – | – | – | – | – | – | – | – | – | – | – | did not develop | abrogated | –
C[C@@H]1[C@H](O)[C@@H](C)/C=C/C=C/C=C/C=C/C=C/C=C/C=C/[C@H](O[C@@H]2O[C@H](C)[C@@H](O)[C@H](N)[C@@H]2O)C[C@@H]2O[C@](O)(C[C@@H](O)C[C@@H](O)[C@H](O)CC[C@@H](O)C[C@@H](O)CC(=O)O[C@H]1C)C[C@H](O)[C@H]2C(=O)O [AMB, amphotericin B] | 1 (≈ 1.08 µM) | 1 (≈ 1.08 µM) | 1 (≈ 1.08 µM) | 1 (≈ 1.08 µM) | 1 (≈ 1.08 µM) | 1 (≈ 1.08 µM) | 1 (≈ 1.08 µM) | 2 (≈ 2.16 µM) | 1 (≈ 1.08 µM) | 0.5 (≈ 0.541 µM) | 2 (≈ 2.16 µM) | – | – | – | – | – | –
bathophenanthrolinedisulfonate [BPS, reference compound] | – | – | – | – | – | – | – | – | – | – | – | – | – | – | – | – | hypersensitive
